Patent publication US4910152A, “Method for binding opioid receptors” (priority 1986, dated 1990)
Entries after “also recorded” stand apart in the source; their conditions may differ. Where two headings read alike, the source gives them in different places.

Experiments:
[1] = biological target: T1, opioid receptors in rat brain membrane preparations (Rattus norvegicus, UniProt P33535)
Procedure: (§2) The data was analyzed, using the program LIGAND of Munson and Rodbard.

[2] = biological target: T1, opioid receptors in rat brain membrane preparations; assay: 3H-DHM displacement from rat brain membranes (Example 4 method); details: for Hill coefficient / binding activity in synaptosomal membranes (in words): 3H-DHM displacement; for binding activity in synaptosomal membranes (in words): rat brain synaptosomal membranes
Procedure: as §2

[3] = biological target: opioid receptor sites (3H-DALE); assay: Site selectivity displacement, 3H-DALE indicator (with cold DHM); format: binding; details: 0.43 nM cold DHM and 0.43 nM DALE*; determined graphically
Excerpt: In FIG. 1 it will be noted that compounds which displace the two indicator ligands differently provide a curve which is convex towards the axis of the labeled indicator ligand which is less favorably displaced.

[4] = tested on: guinea pig ileum longitudinal muscle preparation; assay: Electrically stimulated guinea pig ileum longitudinal muscle (Example 5); format: cell-based
Procedure: 6-FN was tested for activity on an electrically stimulated guinea pig ileum longitudinal muscle preparation. In this test, a specimen of guinea pig ileum was stretched between two wires in a nutrient solution (2.5 mil.) and stimulated supramaximally at 0.1 Hz. In the absence of opioid agonists and antagonists electrical stimulation of the muscle results in contraction.

[5] = biological target: T1, opioid receptors in rat brain membrane preparations; assay: biochemical
Procedure: as §2

mouse vas deferens = biological target: T2, mouse vas deferens (Mus musculus, UniProt P32300); assay: Mouse vas deferens bioassay, single dose method, DALE agonist (Example 12); format: cell-based; details: for inhibitory effect on the contractions (in words) / duration / reversibility of antagonism in the m.v.d. (in words): m.v.d.; for opioid antagonism, m.v.d.: m.v.d. bioassay; for inhibition of DALE-induced contractions of the m.v.d.: 25-1000 nM, all doses tested; for Relative potency, bioassay M.V.D.: Ke of naloxone in m.v.d. taken to be 1; for t1/2 (half-time of recovery), mouse vas deferens: geometric mean (95% confidence limits); for reversal of antagonism by naloxone, m.v.d.: naloxone up to 10,000 nM; for M.V.D./G.P.I. (relative affinity): ratio of m.v.d. to G.p.i. relative potency
T2 construct: Each of several samples of mouse vas deferens (m.v.d.); tissue A-Lab, Solna, Sweden (mice); host or cells: vas deferens of male NMRI mice

[6] = biological target: T3, guinea-pig ileum myenteric plexus-longitudinal muscle (Cavia porcellus, UniProt A0ACM8Q262); assay: Guinea-pig ileum myenteric plexus-longitudinal muscle bioassay, single dose method, normorphine agonist (Example 12); format: cell-based; details: for opioid antagonism, G.p.i.: G.p.i. bioassay; for Relative potency, bioassay G.P.I.: Ke of naloxone in m.v.d. taken to be 1; for reversal of antagonism by naloxone, G.p.i.: addition of naloxone; for duration of action in the G.p.i. (in words): compared with parent opioids; for t1/2 (half-time of recovery), guinea-pig M. plexus / Kb: geometric mean (95% confidence limits); for Kb: agonist normorphine, read-out: Ke (dissociation constant), guinea-pig M. plexus
T3 construct: normorphine as agonist

[7] = biological target: T4, delta-type opioid binding sites (Rattus norvegicus, UniProt P33533); assay: Delta-site binding, 1 nM [3H]-DALE with 30 nM DAGO, rat brain membranes; details: for Relative potency, binding assay Delta: Ki of naloxone in inhibiting 3H-DALE taken to be 1; for Relative affinity, delta: Ki^-1 x 100 / sum of Ki^-1 values; for delta affinity / selectivity (in words): delta-type opioid receptors
T4 construct: Rat brain membranes were prepared; from tissue; host or cells: rat brain membranes
Procedure: (§1) Rat brain membranes were prepared and binding assays performed as previously described by Neil, A. in "Detection and characterization of four opioid binding sites in the mouse brain," Acta Pharmacol. Tox. 56: 108-116 (1985).

[8] = biological target: T5, mu-type opioid binding sites (Rattus norvegicus, UniProt P33535); assay: Mu-site binding, 0.2 nM [3H]-dihydromorphine, rat brain membranes; details: for Relative potency, binding assay Mu: Ki of naloxone in inhibiting 3H-DALE taken to be 1; for Relative affinity, mu: Ki^-1 x 100 / sum of Ki^-1 values; for Ki: [3H]-DHM, read-out: Ki, mu (inhibition of binding)
T5 construct: Rat brain membranes were prepared; from tissue; host or cells: rat brain membranes
Procedure: as §1

[9] = biological target: T6, kappa-type opioid binding sites (Rattus norvegicus, UniProt P34975); assay: Kappa-site binding, 1 nM [3H]-(±)-EKC with 200 nM DAGO and DADL, rat brain membranes; details: for Relative potency, binding assay Kappa: Ki of naloxone in inhibiting 3H-DALE taken to be 1; for Relative affinity, kappa: Ki^-1 x 100 / sum of Ki^-1 values
T6 construct: Rat brain membranes were prepared; from tissue; host or cells: rat brain membranes
Procedure: as §1

opioid receptors = details: Hahn, Pasternak et al.; cited from earlier work
[10] = feeding induced by 2-deoxy-D-glucose; cited from earlier work

T5 sequence (P33535 whole entry): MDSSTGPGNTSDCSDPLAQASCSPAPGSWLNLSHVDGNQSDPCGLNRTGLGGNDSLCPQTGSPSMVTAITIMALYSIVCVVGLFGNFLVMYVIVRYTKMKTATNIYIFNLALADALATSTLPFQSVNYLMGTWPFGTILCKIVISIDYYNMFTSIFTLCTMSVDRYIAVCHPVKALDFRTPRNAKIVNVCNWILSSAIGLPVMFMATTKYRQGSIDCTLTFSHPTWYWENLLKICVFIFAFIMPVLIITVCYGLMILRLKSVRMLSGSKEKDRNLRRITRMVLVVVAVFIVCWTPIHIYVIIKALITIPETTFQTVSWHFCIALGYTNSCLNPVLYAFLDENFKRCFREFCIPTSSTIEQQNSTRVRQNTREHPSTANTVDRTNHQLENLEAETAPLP
T1 sequence (P33535 whole entry): as above
T3 sequence (A0ACM8Q262 1-400): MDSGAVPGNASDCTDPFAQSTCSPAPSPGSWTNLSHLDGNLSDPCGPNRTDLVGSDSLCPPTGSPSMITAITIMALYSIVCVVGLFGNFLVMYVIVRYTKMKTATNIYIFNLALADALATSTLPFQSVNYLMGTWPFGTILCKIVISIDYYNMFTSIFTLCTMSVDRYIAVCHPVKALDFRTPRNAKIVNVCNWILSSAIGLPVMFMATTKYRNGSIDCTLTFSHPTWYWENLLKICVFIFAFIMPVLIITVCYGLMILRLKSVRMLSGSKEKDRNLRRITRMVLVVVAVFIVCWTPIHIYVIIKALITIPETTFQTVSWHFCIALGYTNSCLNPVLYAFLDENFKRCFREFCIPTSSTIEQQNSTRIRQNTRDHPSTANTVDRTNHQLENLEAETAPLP
T6 sequence (P34975 whole entry): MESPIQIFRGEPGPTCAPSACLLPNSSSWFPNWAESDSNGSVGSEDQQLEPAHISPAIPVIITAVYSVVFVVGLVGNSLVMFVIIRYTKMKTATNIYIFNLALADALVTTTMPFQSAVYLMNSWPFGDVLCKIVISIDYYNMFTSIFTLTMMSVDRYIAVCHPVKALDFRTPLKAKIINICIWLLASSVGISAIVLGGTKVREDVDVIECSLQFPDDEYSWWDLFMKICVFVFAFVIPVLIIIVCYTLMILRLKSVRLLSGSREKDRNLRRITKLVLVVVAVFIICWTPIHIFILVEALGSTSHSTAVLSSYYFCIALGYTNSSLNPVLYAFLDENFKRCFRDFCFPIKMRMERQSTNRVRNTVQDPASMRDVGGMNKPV
T2 sequence (P32300 whole entry): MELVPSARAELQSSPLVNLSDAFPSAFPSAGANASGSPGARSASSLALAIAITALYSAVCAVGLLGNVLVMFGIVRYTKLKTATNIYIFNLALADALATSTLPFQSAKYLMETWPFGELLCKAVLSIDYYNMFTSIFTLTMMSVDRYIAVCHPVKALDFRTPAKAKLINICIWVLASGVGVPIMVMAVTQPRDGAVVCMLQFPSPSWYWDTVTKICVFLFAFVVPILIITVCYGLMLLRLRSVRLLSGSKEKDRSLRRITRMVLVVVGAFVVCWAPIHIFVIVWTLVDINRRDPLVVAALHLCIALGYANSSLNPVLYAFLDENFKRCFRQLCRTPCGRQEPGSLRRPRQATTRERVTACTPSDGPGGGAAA
T4 sequence (P33533 whole entry): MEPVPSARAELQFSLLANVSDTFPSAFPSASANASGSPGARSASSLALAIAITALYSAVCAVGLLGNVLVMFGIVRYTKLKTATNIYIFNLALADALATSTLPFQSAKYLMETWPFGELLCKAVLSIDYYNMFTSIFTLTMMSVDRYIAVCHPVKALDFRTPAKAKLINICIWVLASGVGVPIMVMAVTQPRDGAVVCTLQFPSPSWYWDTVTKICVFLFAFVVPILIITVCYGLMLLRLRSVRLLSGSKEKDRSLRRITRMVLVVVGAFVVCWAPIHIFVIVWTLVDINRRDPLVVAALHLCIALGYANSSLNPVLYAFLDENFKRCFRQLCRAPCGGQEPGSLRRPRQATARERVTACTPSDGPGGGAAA

## C=CCN1CC[C@]23c4c5ccc(O)c4O[C@H]2C(NC(=S)Nc2ccc4c(c2)C(=O)OC42c4ccc(O)cc4Oc4cc(O)ccc42)CC[C@@]3(O)[C@H]1C5 (single isomer, unassigned) [FAN, N-(1-N-allyl-14-hydroxynordihydro-6δ-morphinanyl)-N'-fluorosceinyl thiourea]
[1]
  Kd: 18.9 nM

## O=C1OC2(c3ccc(O)cc3Oc3cc(O)ccc32)c2ccc(NC(=S)NN=C(c3ccccc3)c3ccccc3)cc21 [6-FB, 1-(N)-fluoresceinyl benzophenone thiosemicarbazone, reference compound]
[2]; 10^-6 M
  displacement of 3H-DHM (result in words): inactive

## C=CCN1CC[C@]23c4c5ccc(O)c4O[C@H]2C(=NNC(=S)Nc2ccc4c(c2)C(=O)OC42c4ccc(O)cc4Oc4cc(O)ccc42)CC[C@@]3(O)[C@H]1C5 [6-FN, 1-(N)-Fluoresceinyl Naloxone Thiosemicarbazone]
[3]
  IC50: 17 nM
[4]; 10^-6 M 6-FN, 10^-7 M naloxone
  reversibility of 6-FN partial agonist activity by naloxone: reversible with 10^-7 M naloxone
[4]; 10^-6 M (FIG. 2)
  agonist activity of 6-FN in ileum: partial agonist activity; also recorded: slight agonist effect
[4]; final 6-FN concentration 10^-7 M, added prior to normorphine
  inhibition of the agonist effect of normorphine: significantly inhibited the agonist effect of normorphine
[4]; inhibition of agonist effect of normorphine, compared with naloxone
  antagonist effect relative to naloxone: ten times less effective
[4]; washing of the ileum specimen
  elimination of antagonist effect by washing: did not readily eliminate the antagonist effect
[5]
  Kd: 11.5 nM
[2]
  Hill coefficient: 0.671
  binding activity in synaptosomal membranes (in words): sufficient binding activity

## O=C1OC2(c3ccc(O)cc3Oc3cc(O)ccc32)c2ccc(NC(=S)NN=C3CC[C@@]4(O)[C@H]5Cc6ccc(O)c7c6[C@@]4(CCN5CC4CC4)[C@H]3O7)cc21 [6-FNX, 1-(N)-fluoresceinyl naltrexone thiosemicarbazone]
[5]
  Kd: 2.6 nM
[2]
  Hill coefficient: 0.675
  binding activity in synaptosomal membranes (in words): sufficient binding activity

## CN1CC[C@]23c4c5ccc(O)c4O[C@H]2C(=NNC(=S)Nc2ccc4c(c2)C(=O)OC42c4ccc(O)cc4Oc4cc(O)ccc42)CC[C@@]3(O)[C@H]1C5 [6-FO, 1-(N)-fluoresceinyl oxymorphone thiosemicarbazone]
[1]
  Kd: 12.8 nM
[2]
  Hill coefficient: 0.989
  binding activity in synaptosomal membranes (in words): sufficient binding activity

## C=CCN1CC[C@]23c4c5ccc(O)c4O[C@H]2C(=NNC(=S)Nc2ccc(-c4c6ccc(=[N+](C)C)cc-6oc6cc(N(C)C)ccc46)c(C(=O)[O-])c2)CC[C@@]3(O)[C@H]1C5 [6-RN, 1-(N)-tetramethylrhodaminyl-B-naloxone Thiosemicarbazone]
[1]
  Kd: 5.3 nM
[2]
  Hill coefficient: 1.09
  binding activity in synaptosomal membranes (in words): sufficient binding activity
[2]; read-out: IC50 (concentration necessary for 50% displacement of 3H-DHM), rat brain synaptosomal plasma membranes, determined graphically
  IC50: 12 nM

## C[C@]12CC[C@@H]3c4ccc(O)cc4CC[C@H]3[C@@H]1CC[C@@H]2O [17-beta-estradiol, reference compound]
Mouse vas deferens
  inhibitory effect on the contractions (in words): no inhibitory effect on the contractions
  opioid antagonism, m.v.d.: none of the steroids, EH, ADDH or 17-beta-estradiol, showed opioid antagonism
[6]
  opioid antagonism, G.p.i.: none of the steroids, EH, ADDH or 17-beta-estradiol, showed opioid antagonism

## C[C@]12CCC(=NN)C=C1CC[C@@H]1[C@@H]2CC[C@]2(C)C(=NN)CC[C@@H]12 [ADDH, Δ^4 androstenedione-(3,17)-dihydrazone, reference compound]
Mouse vas deferens
  inhibitory effect on the contractions (in words): inhibitory effects of magnitudes similar to NAL-E and NAL-AD-NAL
  opioid antagonism, m.v.d.: none of the steroids, EH, ADDH or 17-beta-estradiol, showed opioid antagonism
[6]
  opioid antagonism, G.p.i.: none of the steroids, EH, ADDH or 17-beta-estradiol, showed opioid antagonism

## C[C@]12CC[C@@H]3c4ccc(O)cc4CC[C@H]3[C@@H]1CCC2=NN [EH, estrone hydrazone, reference compound]
Mouse vas deferens
  inhibitory effect on the contractions (in words): inhibitory effects of magnitudes similar to NAL-E and NAL-AD-NAL
  opioid antagonism, m.v.d.: none of the steroids, EH, ADDH or 17-beta-estradiol, showed opioid antagonism
[6]
  opioid antagonism, G.p.i.: none of the steroids, EH, ADDH or 17-beta-estradiol, showed opioid antagonism

## C=CCN1CC[C@]23c4c5ccc(O)c4O[C@H]2C(=NN=C2C=C4CC[C@@H]6[C@H](CC[C@]7(C)C(=NN=C8CC[C@@]9(O)[C@H]%10Cc%11ccc(O)c%12c%11[C@@]9(CCN%10CC=C)[C@H]8O%12)CC[C@@H]67)[C@@]4(C)CC2)CC[C@@]3(O)[C@H]1C5 [NAL-AD-NAL]
Mouse vas deferens
  Kb: 37 nM
  inhibition of DALE-induced contractions of the m.v.d.: 20-50%
  Relative potency, bioassay M.V.D.: 1.4
  t1/2 (half-time of recovery), mouse vas deferens: 19 (14-24) min
  reversal of antagonism by naloxone, m.v.d.: not reversed by addition of naloxone
  M.V.D./G.P.I. (relative affinity): 0.16
[6]
  Relative potency, bioassay G.P.I.: 8.9
  reversal of antagonism by naloxone, G.p.i.: Nor were the NAL-E or NAL-AD-NAL antagonisms in the G.p.i. reversed by naloxone
  duration of action in the G.p.i. (in words): somewhat longer acting than their parent opioids
  t1/2 (half-time of recovery), guinea-pig M. plexus: 34 min
  Kb: 5.7 nM
[7]
  Relative potency, binding assay Delta: 3.4
  Relative affinity, delta: 5
  delta affinity / selectivity (in words): not to show a high delta affinity
[8]
  Relative potency, binding assay Mu: 18.0
  Relative affinity, mu: 78
  Ki: 1.6 nM
[8]; compared with naloxone
  mu receptor affinity (in words): mu receptor affinity on the order of naloxone
[9]
  Relative potency, binding assay Kappa: 0.19
  Relative affinity, kappa: 7

## C=CCN1CC[C@]23c4c5ccc(O)c4O[C@H]2C(=NN=C2CC[C@H]4[C@@H]6CCc7cc(O)ccc7[C@H]6CC[C@]24C)CC[C@@]3(O)[C@H]1C5 [NAL-E]
Mouse vas deferens
  Kb: 5.8 nM
  inhibition of DALE-induced contractions of the m.v.d.: 20-50%
  Relative potency, bioassay M.V.D.: 8.8
  t1/2 (half-time of recovery), mouse vas deferens: > 1000 min
  duration / reversibility of antagonism in the m.v.d. (in words): very longlasting; also recorded: very long lasting effects
  reversal of antagonism by naloxone, m.v.d.: not reversed by addition of naloxone
  M.V.D./G.P.I. (relative affinity): 12.0
Mouse vas deferens; antagonism of DALE effects
  antagonist potency versus naloxone, m.v.d.: nine-fold more potent than naloxone
Mouse vas deferens; compared with naloxone, delta-rich tissue
  selectivity in antagonizing D-Ala2-Leu5-enkephalin effects (in words): far more selective than naloxone
Mouse vas deferens; listed as NALE
  duration / reversibility of antagonism in the m.v.d. (in words): almost irreversible in some observations
[6]
  Relative potency, bioassay G.P.I.: 0.74
  reversal of antagonism by naloxone, G.p.i.: Nor were the NAL-E or NAL-AD-NAL antagonisms in the G.p.i. reversed by naloxone
  duration of action in the G.p.i. (in words): somewhat longer acting than their parent opioids
  t1/2 (half-time of recovery), guinea-pig M. plexus: 27 min
  Kb: 69 nM
[6]; compared with naloxone, mu-rich tissue
  selectivity in antagonizing normorphine (in words): far less selective
[6]; less potent than naloxone
  fold less potent than naloxone, G.p.i.: 22 fold
[7]
  Relative potency, binding assay Delta: 7.4
  Relative affinity, delta: 70
  delta affinity / selectivity (in words): delta selective; also recorded: long lasting and selectively and preferentially bind delta-type opioid receptors
[7]; listed as Nal-E
  delta affinity / selectivity (in words): far more delta selective than naloxone
[8]
  Relative potency, binding assay Mu: 1.7
  Relative affinity, mu: 16
  Ki: 17 nM
[9]
  Relative potency, binding assay Kappa: 4.4
  Relative affinity, kappa: 14

## C=CCN1CC[C@]23c4c5ccc(O)c4O[C@H]2C(=NN=C2CC[C@@]4(O)[C@H]6Cc7ccc(O)c8c7[C@@]4(CCN6CC=C)[C@H]2O8)CC[C@@]3(O)[C@H]1C5 [naloxone azine]
Opioid receptors
  persistence of binding (in words): long lasting effect

## C=CCN1CC[C@]23c4c5ccc(O)c4O[C@H]2C(=O)CC[C@@]3(O)[C@H]1C5 [naloxone, reference compound]
[6]
  t1/2 (half-time of recovery), guinea-pig M. plexus: 15 min

## O=C1CC[C@@]2(O)[C@H]3Cc4ccc(O)c5c4[C@@]2(CCN3CC2CC2)[C@H]1O5 [naltrexone]
[10]
  suppression of feeding: effective in suppressing feeding

## Oc1ccc2c3c1O[C@H]1[C@@H](O)C=C[C@H]4[C@@H](C2)NCC[C@@]341 [normorphine, reference compound]
[4]; 25 microliters, 10^-7 M
  inhibition of contraction of the muscle (agonist effect): substantially inhibited contraction of the muscle
